Reference: ChEMBL document CHEMBL3044544, “Synthesis, preliminary cytotoxicity evaluation of new 3-formylchromone hydrazones and phosphorohydrazone derivatives of coumarin and chromone” (Med Chem Res, 2012)
Structures can show the parent of a compound that is named as a salt. Active and inactive are the calls of the source. No cut-off for these calls is given here.

Columns and labels:
Type in all cases: functional, cell-based
NALM-6 = assay: Cytotoxicity against Homo sapiens (human) NALM6 cells assessed as reduction in cell survival fraction after 48 hr by MTT assay; settings: NALM-6, 48 h
HL-60 [1] = assay: Cytotoxicity against Homo sapiens (human) HL60 cells assessed as reduction in cell survival fraction after 48 hr by MTT assay; settings: HL-60, 48 h
[2] = Cytotoxicity against Homo sapiens (human) HL60/ADR cells assessed as reduction in cell survival fraction after 48 hr by MTT assay
HL-60 [3] = assay: Induction of apoptosis in Homo sapiens (human) HL60 cells assessed as increase in cytosolic cytochrome c level at IC50 after 0.5 hr by ELISA
HL-60 [4] = assay: Induction of apoptosis in Homo sapiens (human) HL60 cells assessed as increase in cytosolic cytochrome c level at 5 times IC50 after 0.5 hr by ELISA
HL-60 [5] = assay: Induction of apoptosis in Homo sapiens (human) HL60 cells assessed as increase in cytosolic cytochrome c level at 0.2 to 5 times IC50 by ELISA; settings: TDE = time-dependent effect
HL-60 [6] = assay: Induction of apoptosis in Homo sapiens (human) HL60 cells assessed as increase in cytosolic cytochrome c level after 0.5 to 4 hr by ELISA
HL-60 [7] = assay: Induction of apoptosis in Homo sapiens (human) HL60 cells assessed as increase in cytosolic cytochrome c level at 0.2 times IC50 after 0.5 hr by ELISA

Compound | IC50 (NALM-6) [µM] | IC50 (HL-60 [1]) [µM] | IC50 [2] [µM] | Activity (HL-60 [3]) | Activity (HL-60 [4]) | Activity (HL-60 [5]) | Activity (HL-60 [6]) | Activity (HL-60 [7])
Cc1cc2oc(N)c(/C=N/NCCO)c(=O)c2cc1C | 65.3 | 23.5 |  |  |  |  |  | 
CCOP(=S)(OCC)N(C)/N=C/c1c(O)c2ccccc2oc1=O | 66.5 | 86.3 |  |  |  |  |  | 
Nc1oc2ccccc2c(=O)c1/C=N/Nc1ccc(C(=O)O)cc1 | 628 | 940 |  |  |  |  |  | 
COC(=O)N/N=C/c1c(N)oc2ccccc2c1=O | 407 | 463 |  |  |  |  |  | 
COc1cccc2c1C(=O)c1c(O)c3c(c(O)c1C2=O)C[C@@](O)(C(=O)CO)C[C@@H]3O[C@H]1C[C@H](N)[C@H](O)[C@H](C)O1 [DOXORUBICIN HYDROCHLORIDE] |  | 0.04 |  |  |  |  |  | 
COP(=S)(OC)N(C)/N=C/c1c(O)c2ccccc2oc1=O | 56.5 | 61.8 |  |  |  |  |  | 
Nc1oc2ccccc2c(=O)c1/C=N/NCCO | 42.1 | 48.5 |  |  |  |  |  | 
Nc1oc2ccccc2c(=O)c1/C=N/N=C(c1ccccc1)c1ccccc1 | 102 | 56.2 | 54.8 |  |  |  |  | 
O=c1c(/C=N/Nc2cc(Cl)ccc2Cl)coc2ccccc12 | 85.3 | 265 |  |  |  |  |  | 
Nc1oc2ccc(Cl)cc2c(=O)c1/C=N/NCCO | 28 | 6.6 | 7.9 | Active | Active | tde | Dose-dependent effect | Active
COP(=S)(OC)N(C)/N=C/c1coc2ccccc2c1=O | 28.8 | 34.4 | 30.6 | Active | Active | tde | Dose-dependent effect | Active
Nc1oc2ccccc2c(=O)c1/C=N/Nc1cc(Cl)ccc1Cl | 500 | > 1000 |  |  |  |  |  | 
CC(=O)CC(c1ccccc1)c1c(O)c2ccccc2oc1=O (stereo not given) [WARFARIN] | 74.8 | 486 |  |  |  |  |  | 
COC(=O)N/N=C/c1coc2ccccc2c1=O | 309 | 371 |  |  |  |  |  | 
